Patent US20110293537A1, “FORMULATIONS WITH ANTI-NEOPLASTIC ACTIVITY” (priority 2008, published 2011)
Where two headings read alike, the source gives them in different places.

Key:
[1] = tested on: buccal pouches and principal organs; assay: Local toxicity of empty vehicles without DMBA induction; type: in vivo, Syrian golden hamsters (Mesocricetus auratus)
Procedure: The last thirty animals were randomly divided in three further groups (n=10 each) to evaluate the local toxicity of the empty vehicles (TE, TC and TM) without DMBA carcinogenesis induction. Topical application of EtOH, cream and mouthwash was performed in the same manner before described.
In vivo side effects were investigated after 14 weeks of E, C and M topical applications on right buccal pouches on three groups of animals (TE, TC and TM respectively).

[2] = tested on: DMBA-induced lesions (OPL, ExL) of hamster buccal pouch; settings: in vivo
[3] = cited from earlier work
[4] = cited from earlier work; remark: listed apart in the source
[5] = tested on: HCPC-I cells; settings: in vitro, FIG. 2
Procedure: Cells were harvested every 3-4 days with 0.25% trypsin solution (from Sigma). […] HCPC-I cells were dispensed at a density of 5×10^2/100 μl for each well in RPMI-1640 supplemented with 10% FCS. […] After 72 h of incubation, cells were supplemented with 10 μl of a stock solution (5 mg/ml) of MTT (Sigma) in phosphate buffer saline (PBS). At least 3 h later, culture medium was replaced with 100 μl of dimethyl-sulfoxide (DMSO, Sigma) and plates read at 560 nm with a “Microplate Reader model 450” (BioRad). Cell viability was expressed as average percentage of absorbance in treated cells versus control (culture medium alone).

[6] = cited from earlier work; remark: listed apart in the source
[7] = 14 weeks topical application, no DMBA

Q: With CCO [EtOH, ethanol] as the compound, how does the “gross observations of pouches and principal organs” value [1, 7] read?
A: did not reveal any macroscopic alterations

Q: And the “histological HE analysis, local adverse reactions” value [1, 7]?
A: absence of local adverse reactions

Q: With Oc1ccc(/C=C/c2cc(O)cc(O)c2)cc1 [RV, 3,4′,5-trihydroxy-trans-stilbene] as the compound, how does the “tolerance of topical application on oral mucosa” value [2] read?
A: good tolerance

Q: And the oral bioavailability ([3]; human)?
A: very poor

Q: What about the initial half-life ([3]; in vivo) of the same compound?
A: 8 to 14 min

Q: What about the pKa ([4]; 3-OH group) of the same compound?
A: 10

Q: What about the pKa ([4]; 4′-OH group) of the same compound?
A: 9.3

Q: What about the pKa ([4]; 5-OH group) of the same compound?
A: 10.6

Q: For hydroxypropyl-β-cyclodextrin [HPβCD], which “toxic signs or adverse effects in chronic treated hamsters” value ([1]; in vivo concentrations) is on record?
A: did not display any toxic signs or adverse effects

Q: What about the “inhibition of cell growth by HPβCD” value [5] of the same compound?
A: inhibition of cell growth only at extremely high concentrations

Q: And the “dose with main adverse event (soft stools and diarrhea)” value ([6]; almost 14 days)?
A: 16-24 g HPβCD/day

Q: What about the oral toxicity ([6]; orally administered) of the same compound?
A: practically non-toxic
